The record followed here is US7968116B2, “Antitumor agent” (Otsuka Pharmaceutical Co., Ltd., priority 2005, dated 2011).

The assay deals with HT-29 (human) cancer cell line. The assay can be described thus: Cell proliferation inhibitory effect (MTT assay) on cultured cancer cell line HT-29. The class given is cell-based. As to conditions: HT-29 cells; for IC50: incubation at 37° C. for three days, MTT assay, read-out: CPI50 (concentration required for attaining 50% CPI, percent cell proliferation inhibition). How it is done: A cultured cancer cell line (HT-29 (human)) was inoculated into a 96-well plate (1×10^4 cells/100 μL/well), and subsequently the GlcNAc-cholestanol-compound-containing liposomal formulation or cyclodextrin inclusion complexation prepared in Example 1 was added to the 96-well plate, followed by incubation at 37° C. for three days. Thereafter, the MTT assay was performed, and the number of cells was determined. Percent cell proliferation inhibition was obtained by use of the below-described formula.
Percent cell proliferation inhibition (percent CPI) (%)=(1 −OD of treated cells/OD of non-treated cells)×100 [E1]
OD of treated cells and OD of non-treated cells were measured at 450 nm and 650 nm, respectively (according to the MTT assay).
On the technique in general: Tetrazolium assays rely on reduction of a dye to a coloured formazan, in cell work by metabolically active cells.

The mark [1] stands for this setting: Cyclodextrin inclusion complexation.

Like-named read-outs stand apart in the source and are kept apart here. Bounds are passed on as bounds.

Regarding `CC(C)CCC[C@@H](C)[C@H]1CC[C@H]2[C@@H]3CC[C@H]4C[C@@H](O)CC[C@]4(C)[C@H]3CC[C@]12C` [Chol, cholestanol], the IC50 runs as follows: under setting [1], above 1000 µM; (Liposomal formulation) 354 µM.
The matching figures for `CC(C)CCC[C@@H](C)[C@H]1CC[C@H]2[C@@H]3CCC4CC(OC5O[C@H](CO)[C@H](O)[C@H](O)[C@H]5O)CC[C@]4(C)[C@H]3CC[C@]12C` (stereo partly drawn) [GalChol, Galp-cholestanol]: 37.4 µM and 12.7 µM.
On the same counts, the results for `CC(=O)N[C@H]1[C@H](O[C@H]2[C@@H](O)[C@@H](CO)O[C@@H](O[C@H]3CC[C@@]4(C)[C@@H](CC[C@@H]5[C@@H]4CC[C@]4(C)[C@@H]([C@H](C)CCCC(C)C)CC[C@@H]54)C3)[C@@H]2O)O[C@H](CO)[C@@H](O)[C@@H]1O` [GlcNAcGalChol, GlcNAcβ1,3Galβ-cholestanol] are 15.9 µM and 10.2 µM.
Consider `CC(=O)N[C@H]1[C@H](O[C@H]2CC[C@@]3(C)[C@@H](CC[C@@H]4[C@@H]3CC[C@]3(C)[C@@H]([C@H](C)CCCC(C)C)CC[C@@H]43)C2)O[C@H](CO)[C@@H](O)[C@@H]1O` [GlcNacChol, 5-α-cholestan-3β-yl-2-acetamido-2-deoxy-β-D-glucopyranoside], for which the IC50 by setting is: under setting [1], 8.8 µM; (Liposomal formulation) 10.4 µM. For the same molecule, the “cell proliferation inhibitory effect (in words)” value (liposomal formulation or cyclodextrin inclusion complexation, three days) is “strong cell proliferation inhibitory effect”.
